From US6686445B1, “Synthetic antineoplastic agents derived from dolastatin 15 and methods of making same” (Arizona Board of Regents, acting for and on behalf of …, priority 1997, dated 2004)
Where two headings read alike, the source gives them in different places. Where a SMILES comes first, the peptide text is derived from it. [ ]: non-standard residue; d: D form. The star is where a group is joined. X1 = COC1=CC(=O)N(C(=O)[C@@H](O*)C(C)C)[C@H]1Cc1ccccc1; NH(2-(2-pyridyl)ethyl) = c1ccc(CCN*)nc1; NMe2Val = CC(C)[C@@H](C(=O)*)N(C)C; NH(thiazol-2-yl) = c1csc(N*)n1; NHPhenethyl = c1ccc(CCN*)cc1; NMeV = CN[C@H](C(=O)O)C(C)C; Hiv = CC(C)[C@H](O)C(=O)O; X4 = COc1ccc(CCN*)cc1OC; X3 = c1ccc2sc(N*)nc2c1; NHBn = c1ccc(CN*)cc1; NHPh = c1ccc(N*)cc1

Experiments:
[1] = system: tubulin; experiment: tubulin polymerization inhibition, 0.8 M glutamate at 30° C.; format: biochemical; settings: read-out: tubulin assembly IC50
Method: (§1) All compounds synthesized were first evaluated for in vitro antitumor activity against murine P388 lymphocytic leukemia cells and against murine L1210 leukemia cells and human CA46 Burkitt lymphoma cells using techniques described by Hamel & Lin (see: HAMEL, E., and LIN, C. M., […], Interaction of combretastatin, a new plant-derived antimitotic agent, with tubulin, Biochemical Pharmacology, 32, 3864). The compounds were also evaluated in the NCI's human tumor 60-cell-line in intro primary screen as described by Monks et al. (see: MONKS, A., SCUDIERO, et al., 1991, New colorimetric cytotoxicity assay for anticancer drug screening, Journal of the National Cancer Institute, 83, 757). Data analyses were performed using methods described by Boyd and Paull (see: BOYD, M. R., et al., 1995, Some practical considerations and applications of the National Cancer Institute in vitro anticancer drug discovery screen, Drug Development Research, 34, 91). A tubulin polymerization inhibition assay was performed according to a modified version of the procedure used previously and described by Muzaffar et al. (see: MUZAFFAR, A., et al., 1990, Antitubulin effects of derivatives of 3-demethylthiocolchicine, methylthio esters of natural colchicinoids, and thioketones derived from thiocolchicine, Comparison with colchicine, Journal of Medicinal Chemistry, 33, 567) to evaluate the effects of dolastatin 15 on cellular microtubule assembly. The new assay for these compounds employed a drug-tubulin preincubation (15 min.) with 10 μM tubulin in 0.8 M glutamate at 30° C., followed by addition of GTP and incubation (20 min.) at 30° C., with tubulin polymerization monitored turbidimetrically in GILFORD recording spectrophotometers.
Since these high molecular weight polymers, like microtubules, scatter light, they make it impossible to quantify drug effects by turbidimetry or centrifugation. […] (no MgCl2 added to reactions).

[2] = system: murine P388 lymphocytic leukemia cells; experiment: growth inhibition of murine P388 lymphocytic leukemia cells; format: cell-based; settings: dosage inhibiting tumor cell growth by 50%
Method: as §1

[3] = system: NCI 60-cell-line in vitro human tumor panel; settings: read-out: Mean Panel GI50; mean ± S.D. of triplicate tests (* duplicate)
Method: as §1

[4] = system: human CA46 Burkitt lymphoma cells; settings: read-out: Human CA46 Burkitt Lymphoma IC50; cells counted after 20 hours
Method: as §1

[5] = system: murine L1210 leukemia cells; settings: read-out: Mouse Leukemia L1210 IC50; cells counted after 24 hours of growth
Method: as §1

[6] = system: human CA46 Burkitt lymphoma cells; experiment: mitotic arrest in drug-treated CA46 Burkitt cells; format: cell-based; settings: 80 nM drug for 20 hours, control cells 3% mitotic
Method: To further verify the assumption that this entire series of compounds is acting intracellularly by interfering with tubulin function, the drug-treated Burkitt cells for mitotic arrest were analyzed.

[7] = system: Erwinia carotovora; experiment: antimicrobial disk susceptibility test; format: cell-based; settings: twofold dilutions
Method: Antimicrobial disk susceptibility tests were performed according to the method established by the National Committee for Clinical Laboratory Standards (NCCLS, 1997). MUELLER-HINTON agar was used for susceptibility testing of Staphylococcus aureus, Enterococcus faecalis, Micrococcus luteus, Escherichia coli, Enterobacter cloacae, Bacillus subtilis, Pseudomonas aeruginosa, and Erwinia carotovora, Gonococcal Typing agar for Neisseria gonorrhoeae, and YM agar for Candida albicans and Cryptococcus neoformans. Immediately prior to susceptibility assays, compounds were reconstituted in sterile DMSO and twofold dilutions applied to sterile 6-mm disks. Zones of inhibition were read at 16 hours for bacterial cultures (except for M. luteus) and 42 hours for fungal cultures and M. luteus. MIC determinations were performed in duplicate.

[8] = system: tubulin; settings: read-out: tubulin polymerization IC50 (new experiments); 1 M monosodium glutamate-1 mM MgCl2; maximum concentration used 40 μM
[9] = system: tubulin; settings: cited from earlier work

## CC(C)[C@H](NC(=O)[C@H](C(C)C)N(C)C)C(=O)N(C)[C@H](C(=O)N1CCC[C@H]1C(=O)N1CCC[C@H]1C(=O)NCc1ccccc1)C(C)C [LU103793, N-dimethyl-L-valyl-L-valyl-N-methyl-L-valyl-L-prolyl-L-prolyl-benzamide] (NMe2Val-V[NMeV]PP-NHBn)
[1]
  IC50: 4 ± 0.6 µM

## CC(C)[C@H](NC(=O)[C@H](C(C)C)N(C)C)C(=O)N(C)[C@H](C(=O)N1CCC[C@H]1C(=O)N1CCC[C@H]1C(=O)O[C@H](C(=O)Nc1ccccc1)C(C)C)C(C)C [Compound 12a] (NMe2Val-V[NMeV]PP[Hiv]-NHPh)
[2]
  Mouse Leukemia P388 ED50: 0.52 ng/mL
[3]
  GI50: 1.25 ± 0.48 nM
[4]
  IC50: 2 nM
[5]
  IC50: 3 nM
[6]
  % Mitotic Cells: 26%
[1]
  IC50: 26 µM

## COC(=O)[C@H](Cc1ccccc1)NC(=O)[C@@H](OC(=O)[C@@H]1CCCN1C(=O)[C@@H]1CCCN1C(=O)[C@H](C(C)C)N(C)C(=O)[C@@H](NC(=O)[C@H](C(C)C)N(C)C)C(C)C)C(C)C [Compound 12m] (NMe2Val-V[NMeV]PP[Hiv]F-OMe)
[2]
  Mouse Leukemia P388 ED50: 0.54 ng/mL
[3]
  GI50: 3.76 ± 1.05 nM
[4]
  IC50: 1 nM
[5]
  IC50: 3 nM
[6]
  % Mitotic Cells: 40%
[7]
  Minimum inhibitory concentration, Erwinia carotovora: 50-100 μg/disk

## COc1ccc(CCNC(=O)[C@@H](OC(=O)[C@@H]2CCCN2C(=O)[C@@H]2CCCN2C(=O)[C@H](C(C)C)N(C)C(=O)[C@@H](NC(=O)[C@H](C(C)C)N(C)C)C(C)C)C(C)C)cc1OC [Compound 12j] (NMe2Val-V[NMeV]PP[Hiv]-X4)
[2]
  Mouse Leukemia P388 ED50: 0.40 ng/mL
[3]
  GI50: 1.5 ± 0.58 nM
[4]
  IC50: 0.8 nM
[5]
  IC50: 2 nM
[6]
  % Mitotic Cells: 31%
[7]
  Minimum inhibitory concentration, Erwinia carotovora: 50-100 μg/disk

## CC(C)[C@H](NC(=O)[C@H](C(C)C)N(C)C)C(=O)N(C)[C@H](C(=O)N1CCC[C@H]1C(=O)N1CCC[C@H]1C(=O)O[C@H](C(=O)Nc1nc2ccccc2s1)C(C)C)C(C)C [Compound 12q] (NMe2Val-V[NMeV]PP[Hiv]-X3)
[2]
  Mouse Leukemia P388 ED50: 0.45 ng/mL
[3]
  GI50: 2.54 nM
[4]
  IC50: 2 nM
[5]
  IC50: 3 nM
[6]
  % Mitotic Cells: 36%
[7]
  Minimum inhibitory concentration, Erwinia carotovora: 50-100 μg/disk

## COC1=CC(=O)N(C(=O)[C@@H](OC(=O)[C@@H]2CCCN2C(=O)[C@@H]2CCCN2C(=O)[C@H](C(C)C)N(C)C(=O)[C@@H](NC(=O)[C@H](C(C)C)N(C)C)C(C)C)C(C)C)[C@H]1Cc1ccccc1 [Compound 1, dolastatin 15] (NMe2Val-V[NMeV]PP-X1)
[2]
  Mouse Leukemia P388 ED50: 2.4 ng/mL
[3]
  GI50: 1.12 ± 0.5 nM
[4]
  IC50: 2 nM
[5]
  IC50: 4 nM
[6]
  % Mitotic Cells: 31%
[1]
  IC50: 5.2 µM
[7]
  Minimum inhibitory concentration, Erwinia carotovora: 3.12-6.25 μg/disk
[8]
  IC50: 19 ± 0.3 µM
[9]; read-out: tubulin polymerization IC50 (Bai et al. 1992), 10 μM tubulin, 1 M monosodium glutamate-1 mM MgCl2, 20 min at 37° C.
  IC50: 23 µM
[9]; relative to dolastatin 10
  interaction with purified tubulin weaker than that of dolastatin 10: about 20 fold

## CC(C)[C@H](NC(=O)[C@H](C(C)C)N(C)C)C(=O)N(C)[C@H](C(=O)N1CCC[C@H]1C(=O)N1CCC[C@H]1C(=O)O[C@H](C(=O)NCCc1ccccn1)C(C)C)C(C)C [Compound 12k] (NMe2Val-V[NMeV]PP[Hiv]-{NH(2-(2-pyridyl)ethyl)})
[2]
  Mouse Leukemia P388 ED50: 0.40 ng/mL
[3]
  GI50: 3 ± 1.04 nM
[4]
  IC50: 2 nM
[5]
  IC50: 4 nM
[6]
  % Mitotic Cells: 30%
[7]
  Minimum inhibitory concentration, Erwinia carotovora: 50-100 μg/disk

## CC(C)[C@H](NC(=O)[C@H](C(C)C)N(C)C)C(=O)N(C)[C@H](C(=O)N1CCC[C@H]1C(=O)N1CCC[C@H]1C(=O)O[C@H](C(=O)Nc1nccs1)C(C)C)C(C)C [Compound 12p] (NMe2Val-V[NMeV]PP[Hiv]-{NH(thiazol-2-yl)})
[2]
  Mouse Leukemia P388 ED50: 0.26 ng/mL
[3]
  GI50: 1.2 nM
[4]
  IC50: 4 nM
[5]
  IC50: 2 nM
[6]
  % Mitotic Cells: 40%
[1]
  IC50: 8.4 µM
[7]
  Minimum inhibitory concentration, Erwinia carotovora: 50-100 μg/disk

## CC(C)[C@H](NC(=O)[C@H](C(C)C)N(C)C)C(=O)N(C)[C@H](C(=O)N1CCC[C@H]1C(=O)N1CCC[C@H]1C(=O)O[C@H](C(=O)NCCc1ccccc1)C(C)C)C(C)C [Compound 12c, N-[(2S)-O-[(N,N-Dimethyl-valyl)-valyl-(N-methyl-valyl)-prolyl-prolyl]-2-hydroxyisovalerlyl]-2-phenethylamide] (NMe2Val-V[NMeV]PP[Hiv]-NHPhenethyl)
[2]
  Mouse Leukemia P388 ED50: 0.26 ng/mL
[3]
  GI50: 1.06 ± 0.48 nM
[4]
  IC50: 0.3 nM
[5]
  IC50: 2 nM
[6]
  % Mitotic Cells: 45%
[7]
  Minimum inhibitory concentration, Erwinia carotovora: 50-100 μg/disk
